Measurements published in patent EP0178503A1, “Butenyl derivatives, process for their preparation and medicines containing them” (LUDWIG HEUMANN & CO GMBH, priority 1984, dated 1986).

Molecular target: T1, Histamin-H2-Rezeptoren (Cavia porcellus, UniProt P47747)
T1 construct: Kontraktionsfrequenz des isolierten rechten Atriums des Meerschweinchens; from tissue; host or cells: isolated guinea pig (right) atrium
Experiment: pA2 determination in vitro on guinea pig atrium (method of Ariens)
Type: biochemical, Meerschweinchen
Conditions: Meerschweinchenvorhof, H2-antagonistic activity, Molec. Pharmac., Band 1 (1964)
Text: Die pharmakologische Aktivität dieser Verbindungen kann nach einer modifizierten Methode gemäß der DE OS 2734070 beim perfundierten Rattenmagen gezeigt werden oder durch die Ermittlung der pA2-Werte in vitro am Meerschweinchenvorhof (vergleiche Ariens, Molec. Pharmac., Band 1, Academic Press, New York, 1964) nachgewiesen werden.

T1 sequence (P47747 whole entry): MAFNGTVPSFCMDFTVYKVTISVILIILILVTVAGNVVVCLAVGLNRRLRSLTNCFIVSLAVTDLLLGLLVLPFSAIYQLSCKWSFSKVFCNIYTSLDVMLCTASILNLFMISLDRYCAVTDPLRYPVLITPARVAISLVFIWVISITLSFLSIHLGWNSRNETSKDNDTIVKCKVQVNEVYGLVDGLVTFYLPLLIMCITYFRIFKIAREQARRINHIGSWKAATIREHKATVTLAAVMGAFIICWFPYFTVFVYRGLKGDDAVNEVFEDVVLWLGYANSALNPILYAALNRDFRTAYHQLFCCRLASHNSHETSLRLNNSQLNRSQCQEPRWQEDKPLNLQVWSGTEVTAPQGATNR

Kb: 31.6 nM
Structure (SMILES): CNC(=C[N+](=O)[O-])NCC=CCOc1cccc(CN2CCCCC2)c1 [Beispiel 4, 1-Methylamino-1-[4-[3-(piperidinomethyl)phenoxy]but-2-enyl] amino-2-nitro-ethylen]
